The values below come from article PMC8761493, “New insights into the phosphorylation of the threonine motif of the β1 integrin cytoplasmic domain” (Life Science Alliance, 2022).

For one series, the system named is endogenous SNX17. In words: Peptide pull-down from whole cell lysate, Western blot. The series is classed as binding. Particulars: densitometry, compared with β1-WT, mean ± SD, n = 5, SD. As to the method: (§1) Before use, peptides were immobilized on 25 μl Dynabeads MyOne Streptavidin C1 (10 mg/ml; Invitrogen) in Mammalian Protein Extraction Reagent (Thermo Fisher Scientific) containing protease inhibitors (cOmplete; Roche) and phosphatase inhibitors (Phosphatase Inhibitor Cocktail 2 and 3; Sigma-Aldrich) for 3 h at 4°C. Cell lysates were prepared with MPER containing protease and phosphatase inhibitors and 0.5 mg of supernatant was incubated with the peptide-coated beads at 4°C under constant rotation. For pull-downs with recombinant proteins, synthetic β1 integrin tail peptides were immobilized on 25 μl Dynabeads MyOne Streptavidin C1 (10 mg/ml; Invitrogen) for 3 h at 4°C, incubated with 2% BSA in Mammalian Protein Extraction Reagent (Thermo Scientific Scientific) for 30 min at 4°C to block unspecific binding before adding kindlin-2 or THD (conc 2.5 and 8.5 nM, respectively) and further incubation on a rotator for 2 h at 4°C. After washing the beads three times with lysis buffer, the proteins bound to the beads were eluted using Laemmli buffer, separated on a 10% SDS–PAGE, and analyzed by Western blotting.

A further series has as its system endogenous kindlin-2. The series is described as above. The series is classed as binding. To be noted: densitometry, compared with β1-WT, mean ± SD, n = 5, SD. As to the method:
as §1

The next series has as its system recombinant kindlin-2. In words: Streptavidin-bead peptide pull-down with recombinant protein. The series is classed as binding. Particulars: N-terminally desthio biotinylated peptide on streptavidin beads; kindlin-2 2.5 nM; THD absent or present; 2 h at 4°C; Western blot. As to the method: as §1
(In general: A western blot detects proteins with antibodies after separation by electrophoresis.)

A short description of series [1]: Mass spectrometry-based measurement of the peptide's phosphorylation state after incubation in whole cell lysates. The series is classed as in vitro ADME. To be noted: whole cell lysate in MPER with protease and phosphatase inhibitors, 4°C; read-out mass spectrometry.
Series [2] has as its target T1, kindlin-2 (Homo sapiens, UniProt Q96AC1).
T1 sequence (Q96AC1 1-680): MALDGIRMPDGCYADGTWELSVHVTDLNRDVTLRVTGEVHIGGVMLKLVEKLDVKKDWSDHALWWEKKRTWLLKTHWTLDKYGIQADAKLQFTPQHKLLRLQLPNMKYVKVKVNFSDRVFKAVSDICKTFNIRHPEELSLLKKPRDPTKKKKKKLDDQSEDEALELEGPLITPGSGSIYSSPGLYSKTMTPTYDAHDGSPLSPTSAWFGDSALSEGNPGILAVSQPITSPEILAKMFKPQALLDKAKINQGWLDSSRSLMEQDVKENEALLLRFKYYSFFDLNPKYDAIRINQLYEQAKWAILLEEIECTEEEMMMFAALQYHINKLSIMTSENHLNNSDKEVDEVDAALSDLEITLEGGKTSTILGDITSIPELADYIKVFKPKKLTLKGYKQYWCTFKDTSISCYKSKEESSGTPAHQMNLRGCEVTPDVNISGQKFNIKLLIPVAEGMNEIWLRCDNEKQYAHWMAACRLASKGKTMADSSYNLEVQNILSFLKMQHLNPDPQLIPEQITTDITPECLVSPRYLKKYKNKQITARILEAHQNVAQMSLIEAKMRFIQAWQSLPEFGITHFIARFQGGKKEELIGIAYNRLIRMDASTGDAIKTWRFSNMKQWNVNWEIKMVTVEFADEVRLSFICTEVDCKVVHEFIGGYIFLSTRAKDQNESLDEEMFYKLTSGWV
In words: Microscale thermophoresis (MST) affinity measurement. In kind it is binding. To be noted: compared with β1-WT tails. For orientation: Microscale thermophoresis detects binding through changes in fluorescence in a small temperature gradient.
Experimental: All MST measurements were performed on a Monolith NT.115 red-blue (Nanotemper) using premium-coated capillaries to reduce non-specific interaction of the proteins with the glass surface. Both interaction partners (ligand and receptor) were transferred into MST buffer (20 mM Tris, pH 7.5, 200 mM sodium chloride, 1 mM tris(2-carboxyethyl)phosphine [TCEP], 0.05% Tween-20) to avoid artifacts derived from buffer mismatches. […] The measurements were carried out at 20% light emitting diode power and 20% and 40% MST power. Data were analyzed using the MO Affinity Analysis Software (Nanotemper).

Series [3] deals with anti-β1-pTpT integrin antibody (Abcam). In words: Integrin peptide ELISA (direct ELISA, immobilized tail peptides). In kind it is binding. Particulars: antibody dilution range 1:500 to 1:10,000 (Fig 1E). How it is done: (§2) The plates were blocked with 200 μl PBS containing 3% BSA for 1 h at room temperature and then washed thrice with 200 μl PBS. Different dilutions of the anti–β1-pTpT antibodies (Thermo Fisher Scientific and Abcam) in 100 μl PBS supplemented with 3% BSA were incubated for 2 h at room temperature. After washing thrice with 200 μl PBS, 100 μl of anti-rabbit-IgG HRP-conjugate was added (1:10,000 in PBS supplemented with 3% BS) and incubated for 1 h at room temperature. The plates were washed thrice with 200 μl PBS, developed with 100 μl of ABTS substrate solution (1-Step ABTS; Thermo Fisher Scientific) before measuring absorbance at λ = 405 nm in a SpectraMax ABS Plus plate reader (Molecular Devices).

Series [4] concerns anti-β1-pTpT integrin antibody (Thermo Fisher Scientific). The description is as above. In kind it is binding. Particulars: antibody dilution range 1:500 to 1:10,000 (Fig 1D). How it is done:
as §2

Series [5] concerns the target β1-pTpT peptide, N-terminally desthiobiotinylated. In words: pull-down; desthiobiotinylated β1-tail peptides on Dynabeads MyOne Streptavidin C1; 0.5 mg whole cell lysate in MPER with protease and phosphatase inhibitors, 4°C; Western blot and densitometry.
In series [6] the target is kindlin-2 (UniProt Q8CIB5). In words: streptavidin-bead peptide pull-down, Western blot. To be noted: reference: β1-WT tail peptide; sites T788,T789.
The target of series [7] is talin-1 head domain (THD) head domain (UniProt P26039). The experiment in a line: streptavidin-bead peptide pull-down, Western blot. Particulars: reference: β1-WT tail peptide; sites T788,T789.
Series [8] has as its target kindlin-2 (UniProt Q8CIB5). The experiment in a line: biotinylated peptide pull-down from cell lysate. To be noted: reference: β1-WT tail peptide; sites T788,T789.
The target of a further series is SNX17 (UniProt Q8BVL3). The experiment in a line: biotinylated peptide pull-down from cell lysate. Particulars: reference: β1-WT tail peptide; sites T788,T789.
For series [9], the target named is kindlin-2 (UniProt Q8CIB5). In words: microscale thermophoresis, Atto488-labeled peptides. Particulars: reference: β1-WT tail peptide; sites T788,T789.
Series [10] deals with talin-1 head domain (THD) head domain (UniProt P26039). The series is described as above. To be noted: reference: β1-WT tail peptide; sites T788,T789.

Take `CC[C@H](C)[C@H](NC(=O)[C@@H]1CCCN1C(=O)[C@H](CC(N)=O)NC(=O)[C@H](CCC(=O)O)NC(=O)CNC(=O)[C@@H](NC(=O)[C@H](CC(=O)O)NC(=O)[C@H](Cc1c[nH]c2ccccc12)NC(=O)[C@H](CCCCN)NC(=O)[C@H](C)NC(=O)[C@H](CC(N)=O)NC(=O)[C@H](CCSC)NC(=O)[C@H](CCCCN)NC(=O)[C@H](CCC(=O)O)NC(=O)[C@H](CCCCN)NC(=O)[C@H](CCC(=O)O)NC(=O)[C@H](Cc1ccccc1)NC(=O)[C@H](CCCCN)NC(=O)[C@H](C)NC(=O)[C@H](Cc1ccccc1)NC(=O)[C@H](CCC(=O)O)NC(=O)[C@H](CCCNC(=N)N)NC(=O)[C@H](CCCNC(=N)N)NC(=O)[C@H](CC(=O)O)NC(=O)[C@@H](N)Cc1c[nH]cn1)[C@@H](C)O)C(=O)N[C@@H](Cc1ccc(O)cc1)C(=O)N[C@@H](CCCCN)C(=O)N[C@@H](CO)C(=O)N[C@@H](C)C(=O)N[C@H](C(=O)N[C@H](C(=O)N[C@H](C(=O)N[C@H](C(=O)N[C@H](C(=O)N[C@@H](CC(N)=O)C(=O)N1CCC[C@H]1C(=O)N[C@@H](CCCCN)C(=O)N[C@@H](Cc1ccc(O)cc1)C(=O)N[C@@H](CCC(=O)O)C(=O)NCC(=O)N[C@@H](CCCCN)C(=O)O)C(C)C)C(C)C)[C@@H](C)OP(=O)(O)O)[C@@H](C)OP(=O)(O)O)C(C)C` [β1-pTpT]: the “SNX17 binding to the peptide, reduced to” value with endogenous SNX17 was determined as 60 ± 11%. In addition, in the series with endogenous kindlin-2, the “kindlin-2 binding to the peptide, reduced to” value is listed as 27 ± 11%. Also, the “pull-down of recombinant kindlin-2 (in words)” value in the series with recombinant kindlin-2 is recorded as “not”. In addition, the “reduction of the peptide's phosphorylation after incubation in whole cell lysates” value in series [1] was “around 40%”. Further, at kindlin-2 [2], the “affinity of kindlin-2 for the tail peptide (in words)” value was “not measurable anymore”.

As for “LLQEKGGYIPSGPIpTpTIHENEVVKSPSQPG-OH [Wwc2-pTpT, unrelated peptide with a bi-phosphorylated double-threonine motif derived from the cytosolic scaffolding protein Wwc2]”, the “binding of the anti-β1-pTpT antibody to the immobilized peptide (in words)” value in [3] and in [4] was “detected binding” throughout.

For the compound “endogenous kindlin-2 (from UniProt Q8CIB5 1-680) (natural protein)”, the binding in percent of that to β1-WT (densitometry) in series [5] came out at 27%.

Turning to “β1 integrin (cytoplasmic tail, β1-tail) cytoplasmic tail (from UniProt P09055) β1-pTpT tail peptide”, the “binding against the reference” value is on record as “lost” in the series with kindlin-2 [6], “same” in series [7], “lost” with kindlin-2 [9] and “same” in series [10]. For the same compound, the percent of reference with kindlin-2 [8] is 27%; with SNX17 it was 60%.
